# Data as given in patent US6867235B2, “Helianthrone derivatives as anti-cancer agents” (Yeda Research and Development Co. Ltd., priority 2000, dated 2005).
# Columns and labels:
# [1] = system: U251 human glioblastoma cells; type: cell-based; details: glioblastoma cells in culture, complete darkness
# Description: Human HL-60 leukemic cells were grown in RPMI-1640 supplemented with 15% fetal calf serum, […] and 100 units/ml penicillin-streptomycin. Human erythroleukemia K-562 cells (derived from a chronic myeloid leukemia pateient) were grown in the same medium supplemented with 10% fetal calf serum. These cells and the human U251 glioblastoma, U87MG glioblastoma and LAN5 neuroblastoma cells used in the experiments are available from the ATCC. All cell lines were cultured in a humidified 5% CO2/95% air atmosphere at 37° C.
# Cell viability was monitored by the MTT assay which measures reduction of 3-(4,5-dimethylthiazol-2-yl)-2,5-diphenyl tetrazolium bromide to formasan by mitochondria of viable cells as described in Mossman, T., J. Immunogen., 21, 235-248 (1983). The cells are incubated with MTT for four hours at 37° C. and analyzed in an ELISA reader at 560 nm. The optical density of formasan generated by untreated cell cultures (O.D. control) is defined as one MTT unit. The number of MTT units in culture samples undergoing treatments is calculated as the ratio (O.D.sample−O.D.blank)/O.D.control).
# Three human malignant cell lines were evaluated to sensitivity to dimethyl TMH in vitro. […] The medium was aspirated, the adherent monolayer was washed with phosphate-buffered saline, and cell viability was monitored by the MTI assay. […]
# [2] = system: DA-3HI induced breast adenocarcinoma tumors; assay: Survival after resection of DA-3HI breast adenocarcinoma tumors with hypericin; type: in vivo, BALB/c mice; details: for survival rate: 5 days apart
# Description: The primary tumor size at which metastases occur in DA-3^HI-derived breast adenocarcinoma tumors was initially calibrated in BALB/c mice inoculated with 5×10^5 DA-3^HI tumor cells intradermally. […] If the resection was performed on tumors with larger diameters, the mice died of metastases. A diameter of approximately 5 mm appears to be the cutoff at which metastases begin to spread.
# DA-3^HI tumors were induced in 12-week old female BALB/c mice as described above. When the tumors reached diameters of 8-10 mm the mice were divided into four groups. One group of 19 mice was left untreated and in the three other groups the tumors were surgically removed. One of the resected groups received two intraperitoneal (i.p.) injections with 200 μg hypericin (HY) each 5 days apart beginning two days prior to surgery (16 mice). Another resected group received five i.p. injections with 200 μg hypericin each, 5 days apart beginning two days prior to surgery (17 mice). One resected group was not treated with hypericin (16 mice). The mice were then followed for survival. […] However, administration of 2 i.p. injections of hypericin increased the survival rate to 35% and administration of 5 hypericin doses increased the survival rate to 60%.
# [3] = system: SQ2 squamous cell carcinoma tumors; assay: Survival after resection of SQ2 squamous cell carcinoma tumors with hypericin; type: in vivo, BALB/c mice; details: for mice alive beyond 240 days following tumor cell inoculation: resection
# Description: In another set of experiments squamous cell carcinoma tumors were generated in BALB/c mice by inoculating 5×10^5 SQ2 cells per mouse. When the tumors reached a diameter of 1.0-1.2 cm in diameter they were removed by surgery (resected). One group of 5 mice also received three i.p injections of hypericin of 100 μg/mouse prior to surgery and two regimens of 50 μg/mouse post surgery at intervals of 5 days between each dosing. Another group of 8 mice received six hypericin i.p. injections of 100 μg/mouse prior to surgery and five regimens of 50 μg/mouse post surgery at intervals 5 days apart. One control group of 17 mice underwent surgery only without treatments with hypericin and another control group remained untreated (22 mice). Animal survival was then followed.
# [4] = system: DA-3HI metastatic lesions; assay: Morphology of metastatic lesions after resection of DA-3HI tumors; type: in vivo, BALB/c mice; details: 5 doses of 200 μg/mouse at 5 day intervals, two months after surgery
# Description: In an effort to understand how hypericin prevents the growth of metastases the experiment was repeated and the morphology of the metastatic lesions then followed. Primary DA-3^HI tumors were induced in BALB/c mice. Surgery was conducted on the tumors when diameters reached 8-10 mm. These mice (17 animals) were divided into two groups, one treated with 5 doses of hypericin 200 μg/mouse at 5 day intervals as previously described (9 animals) and another group served as untreated control (8 mice). The animals were grown for two more months. The mice were then sacrificed and the internal organs examined for metastatic lesions. […] This was evident only when hypericin injections were initiated very early prior to the resection of the primary tumor. These observations indicate that hypericin inhibits angiogenesis (growth of new vasculature). […] Since angiogenesis is primarily mediated by vascular endothelium growth factor (VEGF), hypericin may interfere with either the formation or secretion of VEGF from tumor cells or with its targeting of growth inducing receptors on vascular endothelial cells. […] Interference with the signal transduction pathway that culminates in the production of VEGF might be the mechanism for hypericin or helianthrone derivative-mediated inhibition of the VEGF effect that results in inhibition of metastatic lesion growth.
# [5] = system: heparanase-induced angiogenesis; assay: Heparanase-induced angiogenesis in the anterior chamber of the rat eye; type: in vivo, rats; details: four i.p. injections of 750 μg, 5 days after heparanase
# Description: Four rats (250 g each) were given three intraperitoneal injections of hypericin (750 μg per dose in 5 ml water containing 3.5% ethanol) at four day intervals. The following day the animals were anesthetized with xylazine-ketamine and angiogenesis (formation of new blood vessels) was induced by inoculating 2 μl heparanase (30 μg/ml) into the frontal compartment of the eye in the cornea of one of the two eyes in each rat. A fourth intraperitoneal injections of 750 μg hypericin was applied the next day. Two positive control animals received only 2 μl heparanase (30 μg/ml) into the frontal compartment of the eye. Angiogenesis was then allowed to develop for 5 days at which time animals were anesthetized with xylazine-ketamine and examined and photographed under a binocular microscope for development of blood vessels in the anterior chamber of the eye.
# [6] = system: rat aorta rings, endothelial cell microvessels; assay: Rat aorta ring microvessel formation in fibrin gel; type: cell-based; details: 0.1-10 μg/ml (0.2-20 μM)
# Source text: Rat aorta is carved into rings which are embedded in fibrin gels and cultured in MCDB 131 medium. Endothelial cells that detach from the aorta rings generate branching microvessels according to a method previously described (Nicosia R. F. and Ottinetti A. Growth of microvessels in serum-free matrix culture of rat aorta. Laboratory Investigation 63: 115, 1990).
# tumor neovascularization = assay: Tumor neovascularization in tumor-bearing mice; details: mouse, in vivo
# Source text: These hitherto unknown attributes were detected while studying the effects of hypericin and of helianthrone derivatives on breast adenocarcinoma tumors induced in mice with the DA-3^HI cell line and on murine anaplastic squamous carcinoma tumors induced with the SQ-2 cell line. Both are highly metastatic tumors and if surgically resected after having reached a diameter larger than 5 mm, the mice will go on to develop metastases in the lungs and liver. The metastases cause death of the animals within approximately two months following surgery.
# By preventing development of new blood vessels to supply a growing metastasis, the rapidly growing metastatic focus is deprived of nutrients and oxygen for its rapidly multiplying cells and the lesion degenerates.
structure (smiles),measurement,setting,value
Cc1cc(O)c2c(=O)c3c(O)cc(O)c4c5c(O)cc(O)c6c(=O)c7c(O)cc(C)c8c1c2c(c34)c(c78)c65 [hypericin],effect on the cultures at doses at which dimethyl-TMH kills cells,[1],no effect
same,inhibition of the primary tumor,[2]; DA-3HI breast adenocarcinoma tumors,not inhibited
same,survival rate,"[2]; day 89, resection plus 2 i.p. injections of 200 μg",35%
same,survival rate,"[2]; day 89, resection plus 5 i.p. injections of 200 μg",60%
same,inhibition of the primary tumor,[3]; SQ-2 anaplastic squamous carcinoma tumors,not inhibited
same,mice alive beyond 240 days following tumor cell inoculation,"[3]; six i.p. injections 100 μg/mouse prior to surgery, five of 50 μg/mouse post surgery",40%
same,mice alive beyond 240 days following tumor cell inoculation,"[3]; three i.p. injections 100 μg/mouse prior to surgery, two of 50 μg/mouse post surgery",60%
same,protection rates due to hypericin administration,[3]; versus surgery only,20-40%
same,appearance of metastatic lesions in internal organs,[4],"much smaller, somewhat more necrotic and devoid of such vasculature"
same,blood vessels in the anterior chamber of the eye,[5],absence of blood vessels
same,formation of organized microvessels,[6],inhibition of formation of the organized microvessels
same,neovascularization of tumors,tumor neovascularization,prevented neovascularization
